Measurements published in patent US20230416228A1 (Forkhead Biotherapeutics, Inc., priority 2020, published 2023).

Molecular target: T1, human FOXO1 (constitutively active form Thr24Ala, Ser256Ala, Ser319Ala) (Homo sapiens, UniProt Q12778, S256A/S319A/T24A)
T1 construct: expressed in transfected cells; host or cells: HEK293 cells transfected with pcDNA3.1 plasmid
Test: FOXO1 inhibitor activity assay: cell-based transcriptional (luciferase) reporter assay in HEK293 cells
Conditions: HEK293 cells transfected with insulin response element firefly luciferase reporter, FOXO1 and Renilla luciferase; 10-point dose response 50 μM to 2.5 nM; 24 hours
Method in brief: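 IC50 and maximal inhibition were fitted by 4-parameter logistic regression on normalized firefly/Renilla luciferase ratios. The 0% reference used RFP in place of FOXO1, and the 100% reference was DMSO-only with all plasmids.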

T1 sequence (Q12778 whole entry T24A/S256A/S319A): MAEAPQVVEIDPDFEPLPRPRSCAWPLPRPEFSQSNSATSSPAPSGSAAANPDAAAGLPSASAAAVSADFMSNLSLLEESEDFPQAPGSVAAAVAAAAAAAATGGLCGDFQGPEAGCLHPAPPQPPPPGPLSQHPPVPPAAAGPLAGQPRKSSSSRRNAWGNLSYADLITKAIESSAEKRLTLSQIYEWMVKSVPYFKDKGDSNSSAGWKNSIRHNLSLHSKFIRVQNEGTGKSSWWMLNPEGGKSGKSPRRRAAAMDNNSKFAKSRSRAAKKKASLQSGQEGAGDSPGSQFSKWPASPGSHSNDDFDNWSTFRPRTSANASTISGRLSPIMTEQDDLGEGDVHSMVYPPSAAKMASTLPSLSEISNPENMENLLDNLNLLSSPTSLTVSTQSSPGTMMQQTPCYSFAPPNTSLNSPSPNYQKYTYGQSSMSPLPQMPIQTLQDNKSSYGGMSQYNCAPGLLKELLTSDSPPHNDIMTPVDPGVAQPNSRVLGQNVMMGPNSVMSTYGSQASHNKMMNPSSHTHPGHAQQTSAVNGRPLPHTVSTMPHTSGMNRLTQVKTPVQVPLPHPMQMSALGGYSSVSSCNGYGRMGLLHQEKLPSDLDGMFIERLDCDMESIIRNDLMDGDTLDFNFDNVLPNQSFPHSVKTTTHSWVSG

Row | IC50 [µM] | SMILES
1 | 0.1 to 0.3 | Cn1nc(NC(=O)c2ccc(N3CCN(C(=O)CO)CC3)nc2)cc1-c1nc2ccccc2[nH]1 [Compound A-269, N-[5-(1H-benzimidazol-2-yl)-1-methyl-pyrazol-3-yl]-6-[4-(2-hydroxyacetyl)piperazin-1-yl]pyridine-3-carboxamide]
2 | 0.3 to 1 | Cn1nc(NC(=O)c2ccc(N3CC(CO)C3)nc2)cc1-c1nc2ccccc2[nH]1 [Compound A-270, N-[5-(1H-benzimidazol-2-yl)-1-methyl-pyrazol-3-yl]-6-[3-(hydroxymethyl)azetidin-1-yl]pyridine-3-carboxamide]
3 | 0.1 to 0.3 | COCC(=O)N1CCN(c2ccc(C(=O)Nc3cc(-c4nc5ccccc5[nH]4)n(C)n3)cn2)CC1 [Compound A-271]
4 | < 0.1 | COCC1CN(c2ccc(C(=O)Nc3cc(-c4nc5ccccc5[nH]4)n(C)n3)cn2)C1 [Compound A-272, N-[5-(1H-benzimidazol-2-yl)-1-methyl-pyrazol-3-yl]-6-[3-(methoxymethyl)azetidin-1-yl]pyridine-3-carboxamide]
5 | 0.1 to 0.3 | Cn1nc(NC(=O)c2ccc(N3CCC4(CCCO4)CC3)nc2)cc1-c1nc2ccccc2[nH]1 [Compound A-273, N-[5-(1H-benzimidazol-2-yl)-1-methyl-pyrazol-3-yl]-6-(1-oxa-8-azaspiro[4.5]decan-8-yl)pyridine-3-carboxamide]
6 | 0.1 to 0.3 | Cn1nc(NC(=O)c2ccc(N3CC4(CC(O)C4)C3)nc2)cc1-c1nc2ccccc2[nH]1 [Compound A-274, N-[5-(1H-benzimidazol-2-yl)-1-methyl-pyrazol-3-yl]-6-(6-hydroxy-2-azaspiro[3.3]heptan-2-yl)pyridine-3-carboxamide]
7 | 0.1 to 0.3 | Cn1nc(NC(=O)c2ccc(N3CC4(COC4)C3)nc2)cc1-c1nc2ccccc2[nH]1 [Compound A-275, N-[5-(1H-benzimidazol-2-yl)-1-methyl-pyrazol-3-yl]-6-(2-oxa-6-azaspiro[3.3]heptan-6-yl)pyridine-3-carboxamide]
8 | < 0.1 | Cn1nc(NC(=O)c2ccc(N3CCN4C(=O)OCC4C3)nc2)cc1-c1nc2ccccc2[nH]1 (stereo not drawn) [Compound A-276, N-[5-(1H-benzimidazol-2-yl)-1-methyl-pyrazol-3-yl]-6-(3-oxo-5,6,8,8a-tetrahydro-1H-oxazolo[3,4-a]pyrazin-7-yl)pyridine-3-carboxamide]
9 | < 0.1 | COc1ccc(C(=O)Nc2cc(-c3nc4cc(OCCO)ccc4[nH]3)[nH]n2)cc1Cl [Compound A-277, 3-chloro-N-[5-[5-(2-hydroxyethoxy)-1H-benzimidazol-2-yl]-1H-pyrazol-3-yl]-4-methoxy-benzamide]
10 | 0.1 to 0.3 | C[C@@H]1CN(c2ccc(C(=O)Nc3cc(-c4nc5ccccc5[nH]4)n(C)n3)cn2)C[C@H](C)N1CCO [Compound A-278, N-[5-(1H-benzimidazol-2-yl)-1-methyl-pyrazol-3-yl]-6-[(3R,5S)-4-(2-hydroxyethyl)-3,5-dimethyl-piperazin-1-yl]pyridine-3-carboxamide]
11 | < 0.1 | Cn1nc(NC(=O)c2ccc(N3CCN4CCCC4C3)nc2)cc1-c1nc2ccccc2[nH]1 (stereo not drawn) [Compound A-279]
12 | < 0.1 | Cn1nc(NC(=O)c2ccc(N3CCNC(C)(C)C3)nc2)cc1-c1nc2ccccc2[nH]1 [Compound A-280, N-[5-(1H-benzimidazol-2-yl)-1-methyl-pyrazol-3-yl]-6-(3,3-dimethyl-piperazin-1-yl)pyridine-3-carboxamide]
13 | < 0.1 | Cn1nc(NC(=O)c2ccc(N3CCNC4(CC4)C3)nc2)cc1-c1nc2ccccc2[nH]1 [Compound A-281, N-[5-(1H-benzimidazol-2-yl)-1-methyl-pyrazol-3-yl]-6-(4,7-diazaspiro[2.5]octan-7-yl)pyridine-3-carboxamide]
14 | < 0.1 | Cn1nc(NC(=O)c2ccc(N3CCC4(CC3)COC4)nc2)cc1-c1nc2ccccc2[nH]1 [Compound A-282, N-[5-(1H-benzimidazol-2-yl)-1-methyl-pyrazol-3-yl]-6-(2-oxa-7-azaspiro[3.5]nonan-7-yl)pyridine-3-carboxamide]
15 | < 0.1 | Cn1nc(NC(=O)c2ccc(N3CCC(O)(CCO)CC3)nc2)cc1-c1nc2ccccc2[nH]1 [Compound A-283, N-[5-(1H-benzimidazol-2-yl)-1-methyl-pyrazol-3-yl]-6-[4-hydroxy-4-(2-hydroxyethyl)-1-piperidyl]pyridine-3-carboxamide]
16 | 0.3 to 1 | Cn1nc(NC(=O)c2ccc(N3CCN(C(=O)COCCO)CC3)nc2)cc1-c1nc2ccccc2[nH]1 [Compound A-287, N-[5-(1H-benzimidazol-2-yl)-1-methyl-pyrazol-3-yl]-6-[4-[2-(2-hydroxyethoxy)acetyl]piperazin-1-yl]pyridine-3-carboxamide]
17 | 0.1 to 0.3 | C[C@H]1CN(c2ccc(C(=O)Nc3cc(-c4nc5ccccc5[nH]4)n(C)n3)cn2)C[C@H](C)N1 [Compound A-288, N-[5-(1H-benzimidazol-2-yl)-1-methyl-pyrazol-3-yl]-6-[(3S,5S)-3,5-dimethylpiperazin-1-yl]pyridine-3-carboxamide]
18 | 0.1 to 0.3 | Cn1nc(NC(=O)c2ccc(N3CCN(C(=O)CN)CC3)nc2)cc1-c1nc2ccccc2[nH]1 [Compound A-289, 6-[4-(2-aminoacetyl)piperazin-1-yl]-N-[5-(1H-benzimidazol-2-yl)-1-methyl-pyrazol-3-yl]pyridine-3-carboxamide]

Row | SMILES | IC50 [µM]
19 | Cn1nc(NC(=O)c2ccc(N3CC4CC(C3)N4)nc2)cc1-c1nc2ccccc2[nH]1 [Compound A-284, N-[5-(1H-benzimidazol-2-yl)-1-methyl-pyrazol-3-yl]-6-(3,6-diazabicyclo[3.1.1]heptan-3-yl)pyridine-3-carboxamide] | 0.1 to 0.3
20 | Cn1nc(NC(=O)c2ccc(N3C4CCC3COC4)nc2)cc1-c1nc2ccccc2[nH]1 [Compound A-285, N-[5-(1H-benzimidazol-2-yl)-1-methyl-pyrazol-3-yl]-6-(3-oxa-8-azabicyclo[3.2.1]octan-8-yl)pyridine-3-carboxamide] | < 0.1
21 | Cn1nc(NC(=O)c2ccc(N3CC4CCC(C3)N4)nc2)cc1-c1nc2ccccc2[nH]1 [Compound A-286, N-[5-(1H-benzimidazol-2-yl)-1-methyl-pyrazol-3-yl]-6-(3,8-diazabicyclo[3.2.1]octan-3-yl)pyridine-3-carboxamide] | 0.1 to 0.3
